Results on one molecule are retold here after paper PMC6017115, “Inhibitory Effect of Sauchinone on UDP-Glucuronosyltransferase (UGT) 2B7 Activity” (Molecules : A Journal of Synthetic Chemistry and Natural …, 2018).

One may read the IC50 as the concentration needed to halve the response being measured.

One series has as its target T1, UGT1A4 (Homo sapiens, UniProt P22310).
T1 construct: The reaction mixture containing 0.25 mg/mL protein of HLM; tissue Corning Life Sciences 452156; host or cells: pooled human liver microsomes, 50 donors
T1 sequence (P22310 29-534): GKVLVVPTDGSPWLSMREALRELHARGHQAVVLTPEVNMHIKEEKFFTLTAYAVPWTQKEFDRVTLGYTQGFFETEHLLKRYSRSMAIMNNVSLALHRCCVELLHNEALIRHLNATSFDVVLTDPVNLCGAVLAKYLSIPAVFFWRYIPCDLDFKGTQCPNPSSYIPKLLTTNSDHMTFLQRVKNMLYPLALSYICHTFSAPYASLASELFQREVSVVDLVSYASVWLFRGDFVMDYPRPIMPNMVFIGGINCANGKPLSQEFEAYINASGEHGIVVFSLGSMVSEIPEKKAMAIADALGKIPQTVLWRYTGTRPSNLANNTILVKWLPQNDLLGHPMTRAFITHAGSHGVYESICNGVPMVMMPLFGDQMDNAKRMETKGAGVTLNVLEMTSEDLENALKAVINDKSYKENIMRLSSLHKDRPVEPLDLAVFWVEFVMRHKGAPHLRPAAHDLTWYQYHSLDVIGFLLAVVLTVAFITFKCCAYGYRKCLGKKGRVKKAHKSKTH
Nature of the series: Inhibition of UGT1A4 (trifluoperazine glucuronidation) in human liver microsomes. The class given is in vitro ADME. The conditions noted are these: human liver microsomes. How it is done: Their IC50 values were compared to that of sauchinone. […] UGT-mediated activities in the presence of sauchinone as an inhibitor were expressed as percentages of corresponding control values (in absence of sauchinone). From percentages of control activity versus inhibitor concentrations, a sigmoid shaped curve was fitted to the data and IC50 as an enzyme inhibition parameter was calculated by fitting the Hill equation to the data using GraphPad Prism 5 (GraphPad Software Inc., San Diego, CA, USA).
For orientation: Liver microsomes are vesicles of endoplasmic reticulum, rich in cytochrome P450 enzymes.

The target in the next series is T2, Ugt1a9 (Mus musculus, UniProt Q62452).
T2 construct: from tissue; host or cells: mouse liver microsomes prepared in house
T2 sequence (Q62452 24-528): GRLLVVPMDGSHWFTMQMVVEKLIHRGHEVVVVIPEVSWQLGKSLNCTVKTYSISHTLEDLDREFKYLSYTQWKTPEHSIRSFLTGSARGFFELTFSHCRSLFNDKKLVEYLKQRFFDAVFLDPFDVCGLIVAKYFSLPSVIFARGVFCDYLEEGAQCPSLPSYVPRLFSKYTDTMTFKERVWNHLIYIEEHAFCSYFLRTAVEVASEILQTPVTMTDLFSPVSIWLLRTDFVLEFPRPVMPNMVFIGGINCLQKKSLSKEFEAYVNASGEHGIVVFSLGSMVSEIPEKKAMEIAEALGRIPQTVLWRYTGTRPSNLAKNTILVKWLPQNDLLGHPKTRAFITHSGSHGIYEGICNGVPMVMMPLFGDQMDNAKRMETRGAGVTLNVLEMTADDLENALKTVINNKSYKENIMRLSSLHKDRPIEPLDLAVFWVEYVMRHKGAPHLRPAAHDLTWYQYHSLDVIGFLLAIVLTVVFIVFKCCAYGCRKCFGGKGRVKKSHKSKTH
Nature of the series: Inhibition of Ugt1a9 (propofol) in mice liver microsomes. The class given is in vitro ADME. The conditions noted are these: pH 7.6, probe propofol (100 μM, in UGT substrate cocktail), read-out: IC50 of Ugt1a9-catalyzed propofol. As for the experimental part: Their IC50 values were compared to that of sauchinone. […] Mice were sacrificed and then livers were removed and rinsed with saline. After weighing the livers, they were homogenized with a four-fold volume of ice-cold homogenizing buffer (0.154 M KCl, 50 mM Tris-base, 1 mM EDTA, pH 7.4). After centrifugation for 35 min at 9000× g and 4 °C, the supernatants were centrifuged for 95 min at 100,000× g and at 4 °C. The supernatants were discarded and the pellets were homogenized again with ice-cold homogenizing buffer. These aliquots were stored at −80 °C. The subsequent process to evaluate the inhibitory effects of sauchinone on UGT activities in MLM was the same as those using HLM. UGT-mediated activities in the presence of sauchinone as an inhibitor were expressed as percentages of corresponding control values (in absence of sauchinone). From percentages of control activity versus inhibitor concentrations, a sigmoid shaped curve was fitted to the data and IC50 as an enzyme inhibition parameter was calculated by fitting the Hill equation to the data using GraphPad Prism 5 (GraphPad Software Inc., San Diego, CA, USA).

Take `C[C@@H]1[C@H]2c3cc4c(cc3O[C@@]35OCOC3=CC(=O)[C@H](C[C@H]1C)[C@@H]25)OCO4` [Sauchinone]: at UGT1A4 (sauchinone up to 200 μM), the “inhibitory effect on UGT1A4 activity” value is “negligible inhibitory effect”. The IC50 was > 200 µM on UGT1A4 (substrate 40 μM trifluoperazine, mean (minimum–maximum), read-out: IC50 for inhibition of UGT1A4) and 29.8 µM on Ugt1a9.
